± gives the expanded uncertainty stated by the source.
Key:
[1] = Capillary rise
[2] = wn = mass fraction of the nth substance listed; conditions: Capillary rise

CC(F)F [1,1-difluoroethane]
[1]
Conditions | surface tension liquid-gas [mN/m]
298.18 K | 9.747 ± 0.4
303.23 K | 9.062 ± 0.4
308.19 K | 8.505 ± 0.4
313.13 K | 7.731 ± 0.4

FC(F)C(F)(F)F [pentafluoroethane] + CC(F)F
[2]
Conditions | surface tension liquid-gas [mN/m]
243.08 K, w1 = 0.2019 | 16.5 ± 0.4
243.16 K, w1 = 0.097 | 17 ± 0.4
243.22 K, w1 = 0.2996 | 15.6 ± 0.4
248.09 K, w1 = 0.2019 | 15.8 ± 0.4
248.12 K, w1 = 0.2996 | 15 ± 0.4
248.13 K, w1 = 0.097 | 16.2 ± 0.4
253.12 K, w1 = 0.2019 | 15.1 ± 0.4
253.13 K, w1 = 0.2996 | 14.3 ± 0.4
253.55 K, w1 = 0.097 | 15.3 ± 0.4
258.11 K, w1 = 0.097 | 14.6 ± 0.4
258.16 K, w1 = 0.2019 | 14.4 ± 0.4
258.16 K, w1 = 0.2996 | 13.7 ± 0.4
263.06 K, w1 = 0.097 | 13.9 ± 0.4
263.17 K, w1 = 0.2996 | 13 ± 0.4
263.19 K, w1 = 0.2019 | 13.5 ± 0.4
268.12 K, w1 = 0.097 | 13.3 ± 0.4
268.17 K, w1 = 0.2019 | 12.9 ± 0.4
268.18 K, w1 = 0.2996 | 12.2 ± 0.4
273.18 K, w1 = 0.097 | 12.5 ± 0.4
273.18 K, w1 = 0.2996 | 11.4 ± 0.4
273.19 K, w1 = 0.2019 | 12.2 ± 0.4
278.17 K, w1 = 0.2996 | 10.6 ± 0.4
278.18 K, w1 = 0.097 | 11.8 ± 0.4
278.42 K, w1 = 0.2019 | 11.4 ± 0.4
283.13 K, w1 = 0.097 | 11.2 ± 0.4
283.15 K, w1 = 0.2019 | 10.6 ± 0.4
283.17 K, w1 = 0.2996 | 10.1 ± 0.4
288.16 K, w1 = 0.2019 | 9.9 ± 0.4
288.17 K, w1 = 0.097 | 10.6 ± 0.4
288.18 K, w1 = 0.2996 | 9.5 ± 0.4
293.14 K, w1 = 0.2019 | 9.4 ± 0.4
293.17 K, w1 = 0.097 | 9.8 ± 0.4
293.18 K, w1 = 0.2996 | 8.7 ± 0.4
298.08 K, w1 = 0.2019 | 8.8 ± 0.4
298.1 K, w1 = 0.097 | 9.2 ± 0.4
298.11 K, w1 = 0.2996 | 8 ± 0.4
303.13 K, w1 = 0.2019 | 8 ± 0.4
303.17 K, w1 = 0.097 | 8.5 ± 0.4
303.18 K, w1 = 0.2996 | 7.4 ± 0.4
308.1 K, w1 = 0.097 | 7.9 ± 0.4
308.1 K, w1 = 0.2019 | 7.4 ± 0.4
308.12 K, w1 = 0.2996 | 6.7 ± 0.4
313.11 K, w1 = 0.2019 | 6.7 ± 0.4
313.16 K, w1 = 0.097 | 7.2 ± 0.4
313.19 K, w1 = 0.2996 | 6.1 ± 0.4
318.11 K, w1 = 0.2019 | 6.1 ± 0.4
318.12 K, w1 = 0.097 | 6.5 ± 0.4
318.16 K, w1 = 0.2996 | 5.5 ± 0.4
323.14 K, w1 = 0.2019 | 5.4 ± 0.4
323.16 K, w1 = 0.097 | 5.8 ± 0.4
323.17 K, w1 = 0.2996 | 5 ± 0.4
328.1 K, w1 = 0.2019 | 4.8 ± 0.4
328.11 K, w1 = 0.097 | 5.2 ± 0.4
328.16 K, w1 = 0.2996 | 4.3 ± 0.4

CC(C)C [2-methylpropane]
[1]
Conditions | surface tension liquid-gas [mN/m]
313.17 K | 8.28 ± 0.45
318.13 K | 7.704 ± 0.45
323.16 K | 7.182 ± 0.44
328.12 K | 6.691 ± 0.44
328.13 K | 6.669 ± 0.43

From the NIST ThermoML archive (doi:10.1016/j.fluid.2009.09.005)
